Reference: ChEMBL document CHEMBL1201862, “PubChem BioAssay data set” (2004)
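Assay format: 96-well plates, 48-hour exposure. Abbreviation: GI50, concentration required for 50% inhibition of growth.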 Active and inactive are the calls of the source. Rule as the data show it: active = GI50 up to about 1.1 µM and inactive = higher.

Assays:
Experiment in all cases: inhibition of tumour cell growth, NCI panel, 48 h
SF-539 = tested on: SF-539
OVCAR-5 = tested on: OVCAR-5
U-251 = tested on: U-251
OVCAR-3 = tested on: OVCAR-3
EKVX = tested on: EKVX
K562 = tested on: K562
HOP-92 = tested on: HOP-92
NCI-H23 = tested on: NCI-H23
OVCAR-8 = tested on: OVCAR-8
M14 = tested on: M14
SK-OV-3 = tested on: SK-OV-3
MCF7 = tested on: MCF7
SNB-75 = tested on: SNB-75
HT-29 = tested on: HT-29
KM12 = tested on: KM12
SF-295 = tested on: SF-295
IGROV-1 = tested on: IGROV-1
SK-MEL-28 = tested on: SK-MEL-28
NCI-H226 = tested on: NCI-H226
OVCAR-4 = tested on: OVCAR-4

Measured: GI50

COc1cc(O)cc2oc(-c3ccc(O)cc3)cc(=O)c12
inactive: SF-539 > 100 µM | OVCAR-5 > 100 µM | U-251 71.4 µM | OVCAR-3 > 100 µM | EKVX > 100 µM | K562 > 100 µM | HOP-92 71.9 µM | NCI-H23 > 100 µM | OVCAR-8 34.4 µM | M14 > 100 µM | SK-OV-3 > 100 µM | MCF7 > 100 µM | SNB-75 14 µM | HT-29 > 100 µM | KM12 > 100 µM | SF-295 36.2 µM | IGROV-1 47.3 µM | SK-MEL-28 > 100 µM

c1ccc(CSC2(SCc3ccccc3)CCCC2)cc1
inactive: NCI-H226 > 10 µM | SF-539 > 10 µM | OVCAR-5 > 10 µM | U-251 > 10 µM | OVCAR-3 > 10 µM | EKVX > 10 µM | K562 > 10 µM | NCI-H23 > 10 µM | OVCAR-8 > 10 µM | OVCAR-4 > 10 µM | M14 > 10 µM | SK-OV-3 > 10 µM | MCF7 > 10 µM | SNB-75 > 10 µM | HT-29 > 10 µM | KM12 > 10 µM | SF-295 > 10 µM | IGROV-1 > 10 µM | SK-MEL-28 > 10 µM

COc1nc(SC)nc2c1cnn2C1OC(C(O)CO)C(OC)C1O (configuration not stated)
inactive: NCI-H226 > 100 µM | SF-539 > 100 µM | OVCAR-5 > 100 µM | U-251 > 100 µM | OVCAR-3 99.3 µM | EKVX > 100 µM | K562 > 100 µM | NCI-H23 > 100 µM | OVCAR-8 > 100 µM | OVCAR-4 69.3 µM | SK-OV-3 > 100 µM | MCF7 > 62.4 µM | SNB-75 48.4 µM | HT-29 52.4 µM | KM12 > 78.9 µM | SF-295 > 100 µM | IGROV-1 > 100 µM | SK-MEL-28 > 100 µM

c1ccc(C(NC2=NCCO2)c2ccccc2)cc1
inactive: NCI-H226 > 10 µM | SF-539 > 10 µM | OVCAR-5 > 10 µM | U-251 > 10 µM | OVCAR-3 > 10 µM | EKVX > 10 µM | K562 > 10 µM | NCI-H23 > 10 µM | OVCAR-8 > 10 µM | OVCAR-4 > 10 µM | M14 > 10 µM | SK-OV-3 > 10 µM | MCF7 6 µM | SNB-75 > 10 µM | HT-29 > 10 µM | KM12 > 10 µM | SF-295 9.33 µM | IGROV-1 > 10 µM | SK-MEL-28 > 10 µM

O=C(O)Cc1cc(F)ccc1C(=O)O
inactive: SF-539 > 100 µM | OVCAR-5 > 100 µM | U-251 > 100 µM | OVCAR-3 > 100 µM | EKVX > 100 µM | K562 > 100 µM | HOP-92 > 100 µM | NCI-H23 > 100 µM | OVCAR-8 > 100 µM | M14 > 100 µM | SK-OV-3 > 100 µM | MCF7 > 100 µM | SNB-75 80.4 µM | HT-29 > 100 µM | KM12 > 100 µM | SF-295 > 100 µM | IGROV-1 23.6 µM | SK-MEL-28 60.3 µM

O=C(c1ccccc1Br)C(F)(F)F
inactive: NCI-H226 > 100 µM | SF-539 > 100 µM | OVCAR-5 > 100 µM | U-251 > 100 µM | OVCAR-3 > 100 µM | EKVX > 100 µM | K562 > 100 µM | NCI-H23 > 100 µM | OVCAR-8 > 100 µM | OVCAR-4 > 100 µM | M14 > 100 µM | SK-OV-3 > 100 µM | MCF7 > 100 µM | SNB-75 > 100 µM | HT-29 > 100 µM | KM12 > 100 µM | SF-295 > 100 µM | IGROV-1 > 100 µM | SK-MEL-28 > 100 µM

CN(C)CCNC(=O)c1cccc2ccc(-c3ccc(F)cc3)nc12
inactive: NCI-H226 3.53 µM | SF-539 4.06 µM | OVCAR-5 7.55 µM | U-251 6.19 µM | OVCAR-3 6.89 µM | K562 2.93 µM | HOP-92 4.25 µM | NCI-H23 4.47 µM | OVCAR-8 3.3 µM | OVCAR-4 4.38 µM | SK-OV-3 7.62 µM | MCF7 3.56 µM | SNB-75 6.95 µM | HT-29 3.3 µM | KM12 6.67 µM | SF-295 5.7 µM | IGROV-1 4.16 µM | SK-MEL-28 7.06 µM

CC(=O)C1CC[C@@H]2[C@H](CC[C@]3(C)[C@@H](O)CC[C@@H]23)[C@H]1C(=O)O (some centres not stated)
inactive: SF-539 > 100 µM | OVCAR-5 > 100 µM | U-251 > 100 µM | OVCAR-3 > 100 µM | EKVX > 100 µM | K562 > 100 µM | HOP-92 > 100 µM | NCI-H23 > 100 µM | OVCAR-8 > 100 µM | OVCAR-4 > 100 µM | M14 > 100 µM | SK-OV-3 > 100 µM | MCF7 > 100 µM | HT-29 > 100 µM | KM12 > 100 µM | SF-295 > 100 µM | IGROV-1 > 100 µM | SK-MEL-28 > 100 µM

O=[N+]([O-])c1ccc2[nH]c3c(-c4ccccc4)nccc3c2c1
inactive: NCI-H226 9.75 µM | SF-539 63 µM | OVCAR-5 67.8 µM | U-251 19.5 µM | OVCAR-3 14.3 µM | EKVX 21.1 µM | K562 1.71 µM | HOP-92 16.3 µM | NCI-H23 32.1 µM | OVCAR-8 22 µM | OVCAR-4 10.5 µM | SK-OV-3 12.9 µM | MCF7 24.8 µM | SNB-75 11.7 µM | HT-29 10.7 µM | KM12 34.8 µM | SF-295 18 µM | IGROV-1 7.03 µM | SK-MEL-28 29.2 µM

CCCNC(=S)N/C=C1/C(=O)Oc2ccccc2C1=O
inactive: NCI-H226 > 100 µM | SF-539 > 100 µM | OVCAR-5 > 100 µM | U-251 > 100 µM | OVCAR-3 > 100 µM | EKVX > 100 µM | HOP-92 53 µM | NCI-H23 > 100 µM | OVCAR-8 > 100 µM | OVCAR-4 > 100 µM | M14 > 100 µM | SK-OV-3 42.2 µM | MCF7 > 100 µM | SNB-75 33.2 µM | HT-29 > 100 µM | KM12 > 100 µM | SF-295 > 100 µM | IGROV-1 89.9 µM | SK-MEL-28 > 100 µM

CC(=O)OCC1OC(n2c3c(c(-c4ccco4)c(C#N)c2=S)CCC3)C(OC(C)=O)C(OC(C)=O)C1OC(C)=O (configuration not stated)
inactive: SF-539 > 100 µM | OVCAR-5 > 100 µM | U-251 54.6 µM | OVCAR-3 > 100 µM | K562 21.9 µM | HOP-92 15.6 µM | NCI-H23 > 100 µM | OVCAR-4 56.8 µM | M14 > 100 µM | SK-OV-3 > 100 µM | MCF7 63.8 µM | SNB-75 23.4 µM | HT-29 > 100 µM | KM12 > 100 µM | SF-295 > 100 µM | IGROV-1 69.3 µM | SK-MEL-28 > 100 µM
